Experimental data reported in patent US11365220B2, “Methods of making anti-GP41 antibody-specific capture agents” (California Institute of Technology, priority 2013, dated 2022).

Tested on: 4B3
Conditions: stored under N2 at 25° C., 37° C., or 57° C. for 58 days; 10 nM 4B3 spiked in 1% v/v human serum
Method: Small amounts of (iii) were stored under N2 at 25° C., 37° C., or 57° C. for 58 days. […] The remaining samples were lyophilized and used in a single point sandwich ELISA. Streptavidin-coated 96-well plates were saturated with the samples of (iii) recovered from the storage experiments using 1 μM solutions in TBS. The plates were blocked with 5% w/v dry milk in TBS, then incubated with either 1% v/v human serum or 10 nM 4B3 spiked in 1% v/v human serum in 0.5% w/v dry milk in TBS at room temperature for 1 hr. Bound antibody was probed with HPR-conjugated mouse monoclonal antibody to human IgG Fc diluted 1:15,000 in 0.5% w/v dry milk in TBS. The colorimetric assay was developed with TMB substrate, then quenched with 1 M H2SO4 and read at 450 nm.

Biotin-PEG5-IWCGSGKLICTTA-Pra-(TZ-Az4-eihny-CONH2)-ICTTA-CONH2 [(iii)]
ELISA performance after storage: no detectable loss of performance
